Experimental data taken from US20100022514A1, “Heterocycle Compounds and Methods of Use Thereof” (NORVARTIS AG, priority 2006, published 2010).
Where two headings read alike, the source gives them in different places.

Assays:
[1] = test system: p21 promoter (p21-luc) in H1299 cells; experiment: p21 promoter luciferase assay using stably transfected p21-luc in H1299 cells; assay type: cell-based; settings: Homo sapiens, NCI-H1299
Experimental: The cell lines used are derived from H1299 (p21-luc). The growth media used is RPMI 1640, 10% FBS, 1% Pen/Strep and the selection media added is 500 μg/mL Geneticin (Gibco). The buffer used is 5× cell culture lysis buffer (Promega #E1531), stored at −20 C and the Luciferase assay reagent (Promega #E1483) is stored at −70° C. The results of the assay are analyzed using Wallac Software.
To assay Luciferase, the cell culture medium is removed after one day of growth and the flasks are washed once with PBS. The cells are trypsinized in 20 mL of media and the trypsin is neutralized. The cells are counted (0.5-1 mL) on a Vi-Cell XR cell viability analyzer.
Cells are then diluted to a concentration of approximately 5000 cells/200 μL, and 190 μL samples are aliquoted into each well of a Costar white 96-well TC treated white bottom plate with lid (Costar #3917). Plates are then incubated overnight at 37 C.
After a further day, a sample of the compound is added to the wells for assay.
After a further day, the cells are lysed and the luciferase activity of the lysed cells is measured. Each well is washed twice with PBS and 20 μL/well of 1× cell culture lysis buffer (dilute 5× to 1× in distilled water) is added to each well. The microtiter plates are then shaken on a microtiter plate shaker for 20 minutes at room temperate at a speed setting of 5-6. After removal from the shaker, 100 μL of Luciferase Reagent is added to each well. Each microtiter plate is then read on Wallac Envision instrument.

HDAC-1 = biological target: T1, HDAC-1 (Homo sapiens, UniProt Q13547); experiment: Deacetylase fluorescence assay (HDAC-1); assay type: biochemical
T1 construct: made in house
Experimental: Conventional methods are used to express deacetylase enzymes and purify them from lysed cells. The following example describes an exemplary procedure, however equivalent procedures are within the scope of the invention.
The cell line used is a derivative of 293 cells overexpressing a fusion of the gene encoding each deacetylase protein with a nucleotide sequence encoding the Flag marker.
Cells are grown in Optimem, 2% Fetal Calf Serum, Pen/Strep. For enzyme preparation, Lysis buffer (IPLS) is 50 mM Tris-HCl, pH 7.5, 120 mM NaCl, 0.5 mM EDTA and 0.5% Nonidet P-40, to which is added one tablet of Protease inhibitors (Roche 11836170001) per 10 ml buffer. Other buffers are IPHS, which is IPLS containing 1 M NaCl; TBS (Sigma #T5912) dilute 10× stock to 1× with dH2O; HD buffer: 10 mM Tris pH 8.0 (1M Stock) 10 mM NaCl (5M Stock), 10% glycerol, and for dialysis: 400 μM PMSF is added (for 2 L: use 8 ml 100 mM Stock). Protease inhibitors (Complete mini, Boehringer Mannheim), 1 tablet/10 mL are added to all buffers but not used in buffers for enzyme assays.
Cells are harvested without using trypsin, and most cells are obtained easily in PBS, with gentle striking or agitation of flasks if necessary. More adherent cells are scraped in PBS. Cells are grown in 500 cm^2 trays, from which about half of the media is aspirated (50 ml total), then cells are scraped in the rest of the media and transferred to a centrifuge tube. Trays are washed with 25 ml cold PBS, scraped again to collect additional cells, and centrifuged at 1500 rpm at 4° C. for 5 min. Cells are washed at least 3 times in PBS to remove growth media, pelleting cells after each wash by centrifugation at 1500 rpm for 5 minutes. After washing, PBS is removed and the resulting cell pellet frozen at −80° C. for storage prior to purification.
For purification, cells are resuspended in lysis buffer, 12 ml of IPLS for cells collected from 10 500 cm trays. Cells are lysed at 4° C. for 3 hrs with rocking, and debris is removed by centrifugation for 20 min at 17,000 rpm in 30 ml centrifuge tubes. If supernatant is not clear afterward, centrifugation of the supernatant is repeated. Protein concentration of the whole cell lysate is determined (generally in the range of about 2-5 mg/ml).
For immunoprecipitation per mg of protein, 15 μL of anti-Flag M2-Agarose Affinity beads (Sigma #A2220) is used. Beads are prepared by washing 3 times with 10× bead volume of PBS and 1 time with IPLS, with centrifugation of the washes at 1500 rpm for 5 min. Whole cell lysate is incubated with the Ab-beads overnight at 4° C. Then beads are centrifuged and washed in 5× volume of the following buffers: three times in IPLS (30 sec at 4° C., spin at 1500 RPM for 5 min); three times in IPHS; and three times in TBS buffer. After each centrifugation, the supernatant is aspirated, leaving the pellet as dry as possible but avoiding sucking up any of the beads.
To elute the enzyme, beads are resuspended in 5× bead volume of TBS with protease inhibitor (Roche 11836170001) 1 tablet/10 mL. Enzyme is eluted with 400 μg/mL Flag peptide (Sigma #F-3290) for 3 hrs at 4° C. on rotator. Then beads are centrifuged, and the supernatant is transferred to a new tube to which is added 1/10 volume of glycerol. The supernatant is transferred to a dialysis cassette (Pierce #66410) using a 3 cc syringe and 18 G needle, and is dialyze sup in 2 L HD buffer for 2 hrs at 4° C. (1 L/hour). The resulting purified deacetylase is divided into aliquots (300 μL/tube), is snap frozen in dry ice bath, and is stored at −80° C.
For assay of deacetylase an assay based on Deacetylase Fluorescent Activity Assay/Drug Discovery Kit (BioMol # AK500) is used, however any equivalent deacetylase assay is within the scope of the invention.
The Fluorescent Assay Buffer (FAB) contains: 25 mM Tris-HCl, pH 8.0, 137 mM NaCl, 2.7 mM KCl and 1 mM MgCl2. […]

T1 sequence (Q13547 whole entry): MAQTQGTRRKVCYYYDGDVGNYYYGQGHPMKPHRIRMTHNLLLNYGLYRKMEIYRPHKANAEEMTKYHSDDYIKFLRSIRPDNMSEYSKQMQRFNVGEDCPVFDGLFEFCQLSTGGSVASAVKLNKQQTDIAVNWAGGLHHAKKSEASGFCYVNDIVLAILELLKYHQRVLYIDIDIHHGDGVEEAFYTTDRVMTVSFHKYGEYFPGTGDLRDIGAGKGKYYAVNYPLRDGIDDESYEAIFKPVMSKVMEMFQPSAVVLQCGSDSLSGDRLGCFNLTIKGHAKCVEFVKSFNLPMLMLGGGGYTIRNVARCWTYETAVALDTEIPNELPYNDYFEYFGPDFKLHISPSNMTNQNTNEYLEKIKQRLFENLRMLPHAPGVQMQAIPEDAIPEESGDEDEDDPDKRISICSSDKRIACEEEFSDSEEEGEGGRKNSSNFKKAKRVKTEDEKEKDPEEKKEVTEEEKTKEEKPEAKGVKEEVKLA

| SMILES | AC50 [1] | IC50 (HDAC-1; read-out: HDAC-1 IC50) | IC50 (HDAC-1) |
| --- | --- | --- | --- |
| COc1cccc(S(=O)(=O)N2CCc3ccc(/C=C/C(=O)NO)cc3C2)c1 [Example 55, (E)-N-Hydroxy-3-[2-(3-methoxy-benzenesulfonyl)-1,2,3,4-tetrahydro-isoquinolin-7-yl]-acrylamide] | > 1000 nM | 100 to 1000 nM | – |
| COc1cccc(C(=O)N2CCc3cc(/C=C/C(=O)NO)ccc3C2)c1 [Example 88, (E)-N-Hydroxy-3-[2-(3-methoxy-benzoyl)-1,2,3,4-tetrahydro-isoquinolin-6-yl]-acrylamide] | > 1000 nM | 100 to 1000 nM | – |
| O=C(/C=C/c1ccc2c(c1)CCN(CCc1cnn3ccccc13)C2)NO [Example 69, (E)-N-Hydroxy-3-[2-(2-pyrazolo[1,5-a]pyridin-3-yl-ethyl)-1,2,3,4-tetrahydro-isoquinolin-6-yl]-acrylamide] | > 1000 nM | < 100 nM | – |
| O=C(/C=C/c1ccc2c(c1)CN(Cc1ccccc1)C2)NO [Example 1, (E)-3-(2-Benzyl-2,3-dihydro-1H-isoindol-5-yl)-N-hydroxy-acrylamide] | > 1000 nM | 100 to 1000 nM | – |
| CS(=O)(=O)N1Cc2ccc(/C=C/C(=O)NO)cc2C1 [Example 4, (E)-N-Hydroxy-3-(2-methanesulfonyl-2,3-dihydro-1H-isoindol-5-yl)-acryl amide] | > 1000 nM | 100 to 1000 nM | – |
| CC(C)(C)c1[nH]c2ccccc2c1CCN1CCc2cc(/C=C/C(=O)NO)ccc2C1 [Example 74, (E)-3-{2-[2-(2-tert-Butyl-1H-indol-3-yl)-ethyl]-1,2,3,4-tetrahydro-isoquinolin-6-yl}-N-hydroxy-acrylamide] | 100 to 1000 nM | < 100 nM | – |
| Cc1[nH]c2ccccc2c1CC(=O)N1Cc2ccc(/C=C/C(=O)NO)cc2C1 [Example 25, (E)-N-Hydroxy-3-{2-[2-(2-methyl-1H-indol-3-yl)-acetyl]-2,3-dihydro-1H-isoindol-5-yl}-acrylamide] | > 1000 nM | < 100 nM | – |
| COc1cccc(S(=O)(=O)N2Cc3ccc(/C=C/C(=O)NO)cc3C2)c1 [Example 13, (E)-N-Hydroxy-3-[2-(3-methoxy-benzenesulfonyl)-2,3-dihydro-1H-isoindol-5-yl]-acrylamide] | > 1000 nM | < 100 nM | – |
| Cn1cc(CCN2CCc3ccc(/C=C/C(=O)NO)cc3C2)c(-c2ccccc2)n1 [Example 46, (E)-N-Hydroxy-3-{2-[2-(1-methyl-3-phenyl-1H-pyrazol-4-yl)-ethyl]-1,2,3,4-tetrahydro-isoquinolin-7-yl}-acrylamide] | > 1000 nM | 100 to 1000 nM | – |
| COc1cccc(C(=O)N2CCc3ccc(/C=C/C(=O)NO)cc3C2)c1 [Example 59, (E)-N-Hydroxy-3-[2-(3-methoxy-benzoyl)-1,2,3,4-tetrahydro-isoquinolin-7-yl]-acrylamide] | > 1000 nM | 100 to 1000 nM | – |
| Cc1[nH]c2ccccc2c1CC(=O)N1CCc2ccc(/C=C/C(=O)NO)cc2C1 [Example 61, (E)-N-Hydroxy-3-{2-[2-(2-methyl-1H-indol-3-yl)-acetyl]-1,2,3,4-tetrahydro-isoquinolin-7-yl}-acrylamide] | > 1000 nM | < 100 nM | – |
| Cc1nn(C)c(C)c1CN1CCc2cc(/C=C/C(=O)NO)ccc2C1 [Example 32, (E)-N-Hydroxy-3-[2-(1,3,5-trimethyl-1H-pyrazol-4-ylmethyl)-1,2,3,4-tetrahydro-isoquinolin-6-yl]-acrylamide] | > 1000 nM | > 1000 nM | – |
| O=C(/C=C/c1ccc2c(c1)CN(CCc1c[nH]c3ccccc13)C2)NO [Example 27, (E)-N-Hydroxy-3-{2-[2-(1H-indol-3-yl)-ethyl]-2,3-dihydro-1H-isoindol-5-yl}-acrylamide] | > 1000 nM | – | < 100 nM |
| CC(C)(C)c1[nH]c2ncccc2c1CCN1CCc2ccc(/C=C/C(=O)NO)cc2C1 [Example 43, (E)-3-{2-[2-(2-tert-Butyl-1H-pyrrolo[2,3-b]pyridin-3-yl)-ethyl]-1,2,3,4-tetrahydro-isoquinolin-7-yl}-N-hydroxy-acrylamide] | > 1000 nM | < 100 nM | – |
| O=C(/C=C/c1ccc2c(c1)CN(CCC1CCCCC1)C2)NO [Example 35, (E)-3-[2-(2-Cyclohexyl-ethyl)-2,3-dihydro-1H-isoindol-5-yl]-N-hydroxy-acrylamide] | > 1000 nM | 100 to 1000 nM | – |
| O=C(/C=C/c1ccc2c(c1)CN(S(=O)(=O)c1cccc(C(F)(F)F)c1)C2)NO [Example 12, (E)-N-Hydroxy-3-[2-(3-trifluoromethyl-benzenesulfonyl)-2,3-dihydro-1H-isoindol-5-yl]-acrylamide] | > 1000 nM | 100 to 1000 nM | – |
| Cc1nn2ccccc2c1CCN1CCc2ccc(/C=C/C(=O)NO)cc2CC1 [Example 71, (E)-N-Hydroxy-3-{3-[2-(2-methyl-pyrazolo[1,5-a]pyridin-3-yl)-ethyl]-2,3,4,5-tetrahydro-1H-benzo[d]azepin-7-yl}-acrylamide] | > 1000 nM | 100 to 1000 nM | – |
| O=C(/C=C/c1ccc2c(c1)CN(CCc1cnn3ccccc13)C2)NO [Example 28, (E)-N-Hydroxy-3-[2-(2-pyrazolo[1,5-a]pyridin-3-yl-ethyl)-2,3-dihydro-1H-isoindol-5-yl]-acrylamide] | > 1000 nM | < 100 nM | – |
| COc1cccc(S(=O)(=O)N2CCc3cc(/C=C/C(=O)NO)ccc3C2)c1 [Example 83, (E)-N-Hydroxy-3-[2-(3-methoxy-benzenesulfonyl)-1,2,3,4-tetrahydro-isoquinolin-6-yl]-acrylamide] | > 1000 nM | 100 to 1000 nM | – |
| Cc1noc(-c2ccccc2)c1CCN1Cc2ccc(/C=C/C(=O)NO)cc2C1 [Example 34, (E)-N-Hydroxy-3-{2-[2-(3-methyl-5-phenyl-isoxazol-4-yl)-ethyl]-2,3-dihydro-1H-isoindol-5-yl}-acrylamide] | > 1000 nM | 100 to 1000 nM | – |
| COc1ccc(C(=O)N2CCc3ccc(CCC(=O)NO)cc3C2)cc1 [Example 58, N-Hydroxy-3-[2-(4-methoxy-benzoyl)-1,2,3,4-tetrahydro-isoquinolin-7-yl]-propionamide] | > 1000 nM | 100 to 1000 nM | – |
| O=C(/C=C/c1ccc2c(c1)CCN(CCC1CCCCC1)C2)NO [Example 76, (E)-3-[2-(2-Cyclohexyl-ethyl)-1,2,3,4-tetrahydro-isoquinolin-6-yl]-N-hydroxy-acrylamide] | > 1000 nM | < 100 nM | – |
